Source: patent EP0551953A2, “17-(Pyridazine-N-oxide)-substituted steroidal compounds active on the cardiovascular system” (ZAMBON GROUP S.p.A., priority 1992, dated 1993)

Each molecule was assayed on alpha₃ isoform of rat (Na⁺+K⁺)-ATPase (assay: Displacement of [3H]-ouabain, alpha3 isoform, rat brain preparation). Conditions: not given.
Format: binding
Text: The activity of the compounds of formula II has been evaluated with the binding test on the alpha₁ and alpha₃ isoforms of rat (Na⁺+K⁺)-ATPase in rat kidney and rat brain, according to the method described by Noel F. et al., Biochemical Pharmacology, 40(12), pp 2611-2616, (1990) (see Example 2).
Evaluation of the interaction with the alpha₁ and alpha₃ isoforms of rat (Na⁺+K⁺)-ATPase
The method of Noel F. et al., Biochemical Pharmacology, 40(12), pp. 2611-2616, (1990) was used to evaluate the displacement of [³H]-ouabain in preparations of rat kidney and rat brain, containing various concentrations of nerifolin, 3beta-(alpha-L-tevetopyranosyloxy)-14-hydroxy-17beta-(4-pyridazil)-5beta,14beta-androstane (compound R), compound 5 and compound 6 and the corresponding genins, respectively, digitoxygenin, 3beta,14-dihydroxy-17beta-(4-pyridazil)-5beta,14beta-androstane (genin 1), 3beta,14-dihydroxy-17beta-(4-pyridazinyl-2-N-oxide)-5beta,14beta-androstane (genin 2) and 3beta,14-dihydroxy-17beta-(4-pyridazinyl-1-N-oxide)-5beta,14beta-androstane (genin 3).

| SMILES | K₁(alpha₁)/K₁(alpha₃) |
| --- | --- |
| C[C@]12CC[C@H](O)C[C@H]1CC[C@@H]1[C@@H]2CC[C@]2(C)[C@@H](C3=CC(=O)OC3)CC[C@]12O [Digitoxygenin, digitoxygenin] | 37 |

Same assay, conditions: selectivity index, alpha₁ (rat kidney) versus alpha₃ (rat brain)

| SMILES | K₁(alpha₁)/K₁(alpha₃) |
| --- | --- |
| CO[C@H]1[C@H](O)[C@H](O[C@H]2CC[C@@]3(C)[C@H](CC[C@@H]4[C@@H]3CC[C@]3(C)[C@@H](C5=CC(=O)OC5)CC[C@]43O)C2)O[C@@H](C)[C@@H]1O [Nerifolin, nerifolin] | 90 |
| CO[C@H]1[C@H](O)[C@H](O[C@H]2CC[C@@]3(C)[C@H](CC[C@@H]4[C@@H]3CC[C@]3(C)[C@@H](c5ccn[n+]([O-])c5)CC[C@]43O)C2)O[C@@H](C)[C@@H]1O [Compound 5, 3beta-(alfa-L-tevetopyranosyloxy)-14-hydroxy-17beta-(4-pyridazinyl-2-N-oxide)-5beta,14beta-androstane] | ≧1258 |
| CO[C@H]1[C@H](O)[C@H](O[C@H]2CC[C@@]3(C)[C@H](CC[C@@H]4[C@@H]3CC[C@]3(C)[C@@H](c5ccnnc5)CC[C@]43O)C2)O[C@@H](C)[C@@H]1O [Compound R, 3beta-(alpha-L-tevetopyranosyloxy)-14-hydroxy-17beta-(4-pyridazil)-5beta,14beta-androstane] | 63 |
| C[C@]12CC[C@H](O)C[C@H]1CC[C@@H]1[C@@H]2CC[C@]2(C)[C@@H](c3ccnnc3)CC[C@]12O [Genin 1, 3beta,14-dihydroxy-17beta-(4-pyridazil)-5beta,14beta-androstane] | 96 |
| CO[C@H]1[C@H](O)[C@H](O[C@H]2CC[C@@]3(C)[C@H](CC[C@@H]4[C@@H]3CC[C@]3(C)[C@@H](c5cc[n+]([O-])nc5)CC[C@]43O)C2)O[C@@H](C)[C@@H]1O [Compound 6, 3beta-(alfa-L-tevetopyranosyloxy)-14-hydroxy-17beta-(4-pyridazinyl-1-N-oxide)-5beta,14beta-androstane] | ≧1000 |
